*1 amine or outer side, *2 acyl side, *3 side chain or, on linkers, in order; H or OH if unused. Where a SMILES comes first, the peptide text is derived from it. Bridges are numbered along the chain shown (N, C = ends). Side-chain parts run from the residue outwards. [ ]: non-standard residue; d: D form. The star is where a group is joined. C20 diacid = O=C(O)CCCCCCCCCCCCCCCCCCC(=O)*; γGlu = O=C(O)[C@H](CCC(=O)[*:2])N[*:1]; AEEA = NCCOCCOCC(=O)O; Aib = CC(C)(N)C(=O)O
Tests used:
[1] = Pharmacokinetic evaluation in SD rats; format: in vivo; conditions: rat, plasma, 0.048 mg/kg, single SC 0.048 mpk
Procedure: To test the pharmacokinetics of compounds in SD rats in vivo
The pharmacokinetic characteristics of the compounds in rodents after subcutaneous injection were tested according to the standard protocol. In the experiment, the candidate compounds were formulated into clear solutions, and a single subcutaneous injection (SC, 0.048 mpk) was given to the rats. The injection vehicle was citrate buffer (20 mM, pH=7). Whole blood was collected and prepared to obtain plasma. Drug concentration was analyzed by LC-MS/MS method, and pharmacokinetic parameters were calculated by Phoenix WinNonlin software.

[2] = Pharmacokinetic evaluation in cynomolgus monkeys; format: in vivo; conditions: cynomolgus monkey, plasma, 0.02 mg/kg, single SC 0.02 mpk
Procedure: To test the pharmacokinetics of compounds in cynomolgus monkeys in vivo
The pharmacokinetic characteristics of the compounds in mammals after intravenous injection and subcutaneous injection were tested according to the standard protocol. In the experiment, the candidate compounds were formulated into clear solutions, and a single subcutaneous injection (SC, 0.02 mpk) was given to the cynomolgus monkeys. The vehicle for subcutaneous injection was citrate buffer (20 mM, pH=7). Whole blood was collected and prepared to obtain plasma. Drug concentration was analyzed by LC-MS/MS method, and pharmacokinetic parameters were calculated by Phoenix WinNonlin software.

[3] = Plasma stability (PLS) test, human plasma; format: in vitro ADME; conditions: pH 7.4, 37° C., up to 120 min, read-out: PLS (H/M) T1/2, H
[4] = Kidney homogenate stability (BHS) test; format: in vitro ADME; conditions: normal mouse kidney homogenate, 37° C.; read-out: BHS (T1/2 (min))
Procedure: To study the stability of the test compounds in normal mouse kidney homogenate.
1. Before the experiment, the frozen kidney homogenate was thawed in a 37° C. water bath.
2. Test compounds: 10 mM stock solution was diluted with DMSO to prepare 1 mM intermediate solution;
3. test compounds: 1 mM intermediate solution was diluted with DMSO to prepare 50 μM dosing solution;
4. at each time point (0, 10, 30, 60, 120, 180, 240 min), 100 μL of 4% H3PO4 and 800 μL of stop solution were added to precipitate the protein, and mixed thoroughly.
5. The samples were centrifuged at 4000 rpm for 10 min, and 100 μL of supernatant was taken from each well to the plate. The samples were shaken at 800 rpm for approximately 10 min before submitting for LC-MS/MS test.

GLP-1R = target: T1, GLP-1R (Homo sapiens, UniProt P43220); assay: GLP-1R agonist activity test in vitro (cAMP assay); format: cell-based; conditions: GLP-IR Agonist Activity EC50 (−) 1% HSA, HEK293 host cell; without 1% HSA
T1 construct: host or cells: HEK293
Procedure: The cell strains were constructed by Shanghai WuXi AppTec.
The test compound was serially diluted 4-fold with 10 points. The initial concentration was 30 μM, and the dilution was completed with Bravo.
1) 100 nL of the compound was transferred to OptiPlate-384 plate using Echo.
7) The GLP-1R/GIPR cell concentration was diluted to 2.0*10^5/mL with the experimental buffer.
8) […] of the diluted cell suspension was transferred into the OptiPlate-384 plate.
9) The diluted cell suspension was incubated at room temperature for 30 minutes.
2) 10 μL of cAMP detection reagent was added.
3) The OptiPlate-384 plate was covered with TopSeal-A film and incubated at room temperature for 60 minutes.
TopSeal-A was removed and read in EnVision.

[5] = Plasma protein binding (PPB) test, mouse; format: in vitro ADME; conditions: pH 7.4, ultracentrifugation
Procedure: To study the binding of the test compounds to human/mouse plasma albumin.
1. Matrix preparation: On the day of the experiment, the plasma was thawed in cold water and centrifuged at 3220 rpm for 5 min to remove all blood clots. The pH of the obtained plasma was measured and adjusted to 7.4±0.1 using 1% phosphoric acid or 1N sodium hydroxide as needed.
2. Dilution steps of the test compounds: The test compounds were dissolved in dimethyl sulfoxide (DMSO) to prepare stock solutions at concentrations of 10 mM and 2 mM, respectively. A 40 μM working solution was prepared by diluting 2 μL of the stock solution (2 mM) with 98 μL of DMSO. A 400 μM working solution of the control compound was prepared by diluting 10 μL of the stock solution with 240 μL of DMSO. The working solution of the compound (5 μL) was mixed with the blank matrix (995 μL) at a ratio of 1:200 to prepare the loading matrix.
3.1 An equal amount of 30 μL of the loading matrix (n=2) was transferred to the sample collection plate to prepare samples of time 0 (TO) for residue determination. The samples were immediately matched to the corresponding blank buffer in a final volume of 60 μL with a 1:1 volume ratio of plasma to buffer in each well. Then, 60 μL of 4% H3PO4 in H2O and 480 μL of stop solution containing an internal standard were then added to the TO samples of the test compounds. They were then stored at 2-8° C. with other samples pending for further processing.
3.2 The remaining plasma samples were pre-incubated in a carbon dioxide incubator at 37±1° C. for 30 min. The prepared protein-free samples (F samples) and loading matrix samples (230 μL) were transferred to polycarbonate tubes (n=2) and ultracentrifuged at 37° C. and 155000×g (35000 rpm) for 4 hours.
3.3 To prepare T samples (test samples), an additional matrix-containing sample was transferred to a separate 96-well plate (sample incubation plate) and incubated at 37° C. for 4 hours.
3.4 After centrifugation, 30 μL of protein-free sample and 30 μL of T sample were transferred from the second layer of supernatant (below the upper layer) to a new sample collection plate. Each sample was mixed with the corresponding blank buffer or matrix in a final volume of 60 μL with a matrix:buffer volume ratio of 1:1. 60 μL of 4% H3PO4 aqueous solution and 480 μL of stop solution (containing internal standard) were added to all samples. The mixture was centrifuged at 4000 rpm for 20 min, and 100 μL of the supernatant of each sample was taken for LC-MS/MS analysis.

[6] = read-out: Half-life T1/2 (converted)

T1 sequence (P43220 24-463): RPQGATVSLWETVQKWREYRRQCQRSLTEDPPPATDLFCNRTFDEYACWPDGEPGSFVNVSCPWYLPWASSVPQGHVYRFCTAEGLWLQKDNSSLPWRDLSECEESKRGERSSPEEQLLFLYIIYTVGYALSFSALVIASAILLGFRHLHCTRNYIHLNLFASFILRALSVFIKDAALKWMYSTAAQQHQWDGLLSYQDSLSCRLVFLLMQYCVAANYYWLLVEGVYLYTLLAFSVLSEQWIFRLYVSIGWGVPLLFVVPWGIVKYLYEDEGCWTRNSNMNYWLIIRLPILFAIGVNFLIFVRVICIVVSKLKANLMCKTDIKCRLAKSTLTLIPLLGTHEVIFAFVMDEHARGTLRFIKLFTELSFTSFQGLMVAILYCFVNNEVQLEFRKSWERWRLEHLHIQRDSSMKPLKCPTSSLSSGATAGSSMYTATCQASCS

CC[C@H](C)[C@H](NC(=O)[C@H](CC(C)C)NC(=O)[C@H](Cc1c[nH]c2ccccc12)NC(=O)[C@@H]1CCC(=O)NCCCC[C@H](NC(=O)[C@H](CCC(N)=O)NC(=O)[C@H](C)NC(=O)[C@H](CCCCNC(=O)COCCOCCNC(=O)COCCOCCNC(=O)CC[C@H](NC(=O)CCCCCCCCCCCCCCCCCCC(=O)O)C(=O)O)NC(=O)[C@H](CCCCN)NC(=O)[C@H](CC(=O)O)NC(=O)[C@H](CC(C)C)NC(=O)C(C)(C)NC(=O)[C@@H](NC(=O)[C@H](CO)NC(=O)[C@H](Cc2ccc(O)cc2)NC(=O)[C@H](CC(=O)O)NC(=O)[C@H](CO)NC(=O)[C@@H](NC(=O)[C@H](Cc2ccccc2)NC(=O)[C@@H](NC(=O)CNC(=O)[C@H](CCC(=O)O)NC(=O)C(C)(C)NC(=O)[C@@H](N)Cc2ccc(O)cc2)[C@@H](C)O)[C@@H](C)O)[C@@H](C)CC)C(=O)N[C@@H](CCC(=O)O)C(=O)N[C@@H](Cc2ccccc2)C(=O)N[C@@H](C(C)C)C(=O)N1)C(=O)N[C@@H](C)C(=O)NCC(=O)NCC(=O)N1CCC[C@H]1C(=O)N[C@@H](CO)C(=O)N[C@@H](CO)C(=O)NCC(=O)N[C@@H](C)C(=O)N1CCC[C@H]1C(=O)N1CCC[C@H]1C(=O)N1CCC[C@H]1C(=O)N[C@@H](CO)C(N)=O [WX-005] (H-Y[Aib]EGTFTSDYSI[Aib]LDKK([AEEA-AEEA-γGlu-C20 diacid])AQKEFVEWLIAGGPSSGAPPPS-NH2; lactam 20-24) showed a half-life [1, 6] of 1020 min, a Cmax ([1]; read-out: Maximum Plasma Concentration) of 14 nM and an AUC(0-t) ([1]; read-out: SC Concentration Integral AUC0-72 h) of 1.33 µM·h. For the same molecule, the Cmax [2] was 31 nM, the Tmax [2] was 40 h and the half-life [2, 6] was 4.08 days. The AUC(0-t) ([2]; read-out: SC Concentration Integral AUC0-240 h) was 4.55 µM·h, the half-life at 2 μM [3] was > 289 min and the half-life [4] was 21 min. For the same molecule, the EC50 (GLP-1R) was 0.042 nM and the fraction unbound at 4 h, 0.2 μM [5] was 0.0022.
